SMILES strings stand for the structures.

For assay [1], the system named is HT-29. Put plainly: Cytotoxic activity in vitro, SRB. In kind it is cell-based, human. In a few lines: (§1)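 Cytotoxicity was measured with the sulforhodamine B (SRB) assay following the US National Cancer Institute protocol. EC50 is the compound concentration that inhibits proliferation of the human tumour cells by 50% relative to untreated control.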
Assay [2] has as its system HCT-116. Description: Cytotoxic activity in vitro, SRB. In kind it is cell-based, human. In a few lines:
as §1

For assay [3], the system named is UM-UC-3. Put plainly: Cytotoxic activity in vitro, SRB. In kind it is cell-based, human. The gist of the method: as §1
Assay [4] concerns MDA-MB-231. Put plainly: Cytotoxic activity in vitro, SRB. Format: cell-based, human. In a few lines:
as §1

Assay [5] deals with DU-145. Put plainly: Cytotoxic activity in vitro, SRB. In kind it is cell-based, human. In a few lines: as §1
Assay [6] concerns H-460. Put plainly: Cytotoxic activity in vitro, SRB. In kind it is cell-based, human. In a few lines:
as §1

In assay [7] the test system is PANC-1. Description: Cytotoxic activity in vitro, SRB. In kind it is cell-based, human. In a few lines:
as §1

In assay [8] the test system is MCF-7. Description: Cytotoxic activity in vitro, SRB. Format: cell-based, human. The gist of the method: as §1
Assay [9] has as its system AsPC-1. Put plainly: Cytotoxic activity in vitro, SRB. Format: cell-based, human. The gist of the method: as §1
Assay [10] concerns PC-3. Description: Cytotoxic activity in vitro, SRB. In kind it is cell-based, human. The gist of the method: as §1
For assay [11], the system named is MiaPaCa-2. Description: Cytotoxic activity in vitro, SRB. In kind it is cell-based, human. In a few lines:
as §1

Assay [12] has as its system HCT 116. Description: Anti-neoplasmic activity against xenograft in hairless mice. Format: in vivo. The gist of the method: (§2)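 Female 5-week Crl:Nu-Foxn1nu hairless mice received 5×10^6 tumour cells s.c.; therapy began at ~100 or 200 mm^3. Bis-acridines were given i.v. (some series i.p.) twice weekly for 4 weeks, at three doses. TGI [%]=100−(ΔVT/ΔVC×100) from caliper-derived tumour volumes.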

The subject of assay [13] is DU 145. The assay is described as above. In kind it is in vivo. The gist of the method: (§3)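 Human tumour cells (5×10^6 per mouse) implanted subcutaneously in 5-week female nude mice; randomised at ~100–200 mm^3 tumour volume. Dosing i.v. or i.p., twice weekly (thrice for fast growers) over 4 weeks, three dose levels. Growth inhibition computed from volume change versus controls.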

In assay [14] the test system is PC 3. The description is as above. Format: in vivo. Conditions: day 39. The gist of the method:
as §3

Assay [15] deals with H 460. Described as above. Conditions: series 6, i.v., single 8 mg/kg, total 48 mg/kg, day 23. Format: in vivo. In a few lines: as §2
Assay [16] relates to PANC 1. The description is as above. In kind it is in vivo. The gist of the method:
as §2

The test system of assay [17] is BxPC-3. Put plainly: Cytotoxic activity in vitro, SRB. In kind it is cell-based, human. The gist of the method: as §1
Assay [18] relates to Capan-2. Description: Cytotoxic activity in vitro, SRB. In kind it is cell-based, human. In a few lines:
as §1

Assay [19] relates to Mia Pa Ca 2. Description: Anti-neoplasmic activity against xenograft in hairless mice. Format: in vivo. In a few lines:
as §2

The subject of assay [20] is UM UC 3. The description is as above. To be noted: series 11, i.v., single 4 mg/kg, total 28 mg/kg, day 23. Format: in vivo. The gist of the method:
as §2

The test system of assay [21] is BXPC 3. The description is as above. In kind it is in vivo. The gist of the method:
as §2

Assay [22] concerns AsPC 1. The assay is described as above. Format: in vivo. The gist of the method: as §2
In assay [23] the test system is MDA MB 231. The assay is described as above. Format: in vivo. The gist of the method:
as §2

For `CN(CCCNc1c2ccccc2nc2cccc([N+](=O)[O-])c12)CCCNc1ccc([N+](=O)[O-])c2[nH]c3ccc(O)cc3c(=O)c12` [C-1906, 9-{N-[(7-hydroxy-4-nitro-9(10H)acridono-1-yl)aminopropyl]-N-methylaminopropylamino}-1′-nitroacridone], the concentration for a half-maximal effect (EC50) (as a rule, the concentration needed to bring the measured effect to its halfway point) came to 22 nM in [1]; 15 nM in assay [2]; 14 nM in assay [3]; 20 nM in [4]; 43 nM in [5]; 14 nM in assay [6]. The EC50 in assay [7] came out at 32 nM; in [8], 74 nM; in assay [9], 135 nM; in [10] it was 52 nM; in assay [11] it was 24 nM. Also, the “TGI [%] [100 − (ΔVT/ΔVC × 100]” value in [12] (series 9, i.v., single 1 mg/kg, total 5 mg/kg, day 16, *at least half of animals did not survive) is listed as 32* %; in assay [13] (series 1, i.p., single 2 mg/kg, total 6 mg/kg, day 35, *at least half of animals did not survive) it was 60* %; in [14] (series 15, i.p., single 2 mg/kg, total 12 mg/kg) it was 52%.

For `O=c1c2ccccc2[nH]c2c([N+](=O)[O-])ccc(NCCCN3CCN(CCCNc4c5ccccc5nc5cccc([N+](=O)[O-])c45)CC3)c12` [C-2031, 1-[3-(4-nitro-9(10H)-acridono-1-yl)aminopropyl]-4-[3′-(1′-nitroacridin-1-yl)-aminopropyl]piperazine], the EC50 in [2] amounted to 20 nM; in assay [3] it was 17 nM; in assay [4], 28 nM; in assay [5], 11 nM; in assay [6], 9 nM; in assay [7] it was 56 nM. The EC50 turned out to be 77 nM in [8], 78 nM in assay [9], 26 nM in [10] and 28 nM in assay [11]. Besides, the “TGI [%] [100 − (ΔVT/ΔVC × 100]” value in [15] is on record as 60%; in assay [12] (series 8, i.v., single 6 mg/kg, total 18 mg/kg, day 14, *at least half of animals did not survive), 52* %; in [12] (series 9, i.v., single 3 mg/kg, total 24 mg/kg, day 30), 34%; in assay [13] (series 13, i.v., single 4 mg/kg, total 32 mg/kg, day 35), 77%; in assay [13] (series 18, i.p., single 1 mg/kg, total 8 mg/kg, day 64), 81%; in assay [16] (series 10, i.v., single 3 mg/kg, total 30 mg/kg, day 45), 72%. Besides, the “TGI [%] [100 − (ΔVT/ΔVC × 100]” value in assay [16] (series 14, i.v., single 1 mg/kg, total 10 mg/kg, day 37) was found to be 27%; in assay [14] (series 15, i.v., single 1 mg/kg, total 8 mg/kg), 30%.

Turning to `O=c1c2cc(O)ccc2n2cnc3ccc(NCCCN4CCN(CCCNc5c6ccccc6nc6cccc([N+](=O)[O-])c56)CC4)c1c32` [C-2027, 1-[3-(8-hydroxy-imidazo[4,5,1-de]-acridin-6-on-5-yl)aminopropyl]-4-[3′-(1′-nitroacridin-1-yl)-aminopropyl]piperazine], the EC50 in assay [1] came to 81 nM; in assay [2] it was 20 nM; in assay [3], 18 nM; in [17], 164 nM; in assay [4] it was 19 nM; in assay [5], 20 nM. For the same molecule, the EC50 in assay [6] worked out at 17 nM; in assay [7], 24 nM; in assay [8] it was 62 nM; in [18], 43 nM; in assay [9], 191 nM; in assay [10] it was 35 nM. The molecule also displayed an EC50 in assay [11] of 21 nM. The “TGI [%] [100 − (ΔVT/ΔVC × 100]” value in assay [12] (series 7, i.v., single 2.5 mg/kg, total 15 mg/kg, day 15) is recorded as 15%; in assay [19] (series 12, i.v., single 2 mg/kg, total 16 mg/kg, day 26), 29%; in assay [16] (series 10, i.v., single 2 mg/kg, total 10 mg/kg, day 45), 83%; in [16] (series 14, i.v., single 1 mg/kg, total 10 mg/kg, day 45), 23%; in [16] (series 30, i.v., single 1 mg/kg, total 8 mg/kg, day 32, *at least half of animals did not survive), 51* %; in assay [20], 47%.

On to `COc1ccc2c(c1)c(=O)c1c(NCCCN3CCN(CCCNc4c5ccccc5nc5cccc([N+](=O)[O-])c45)CC3)ccc3ncn2c31` [C-2049, 1-[3-(8-methoxy-imidazo[4,5,1-de]-acridin-6-on-5-yl)aminopropyl]-4-[3′-(1′-nitroacridin-1-yl)-aminopropyl]piperazine], for which the EC50 worked out at 28 nM in assay [2]; 75 nM in [17]; 38 nM in assay [4]; 21 nM in assay [5]; 40 nM in assay [7]; 27 nM in assay [18]. The figures for the EC50 in [9] and in [11] were 122 nM and 36 nM, respectively. For the same molecule, the “TGI [%] [100 − (ΔVT/ΔVC × 100]” value in [16] (series 20, i.v., single 6 mg/kg, total 48 mg/kg, day 32) is on record as 63%; in [16] (series 27, i.v, single 2 mg/kg, total 16 mg/kg, day 47), 80%; in [21] (series 21, i.v., single 6 mg/kg, total 40 mg/kg, day 34), 63%; in assay [22] (series 23, i.v., single 6 mg/kg, total 48 mg/kg, day 36, *at least half of animals did not survive), 32* %.

Turning to `Cc1ccc([N+](=O)[O-])c2c(NCCCN3CCN(CCCNc4ccc5ncn6c7ccc(O)cc7c(=O)c4c56)CC3)c3ccccc3nc12` [C-2025, 1-[3-(8-hydroxy-imidazo[4,5,1-de]-acridin-6-on-5-yl)aminopropyl]-4-[3′-(4′-methyl-1′-nitroacridin-1-yl)-aminopropyl]piperazine], the EC50 in [1] worked out at 237 nM; in assay [2] it was 51 nM; in assay [3], 35 nM; in assay [17], 354 nM; in assay [4] it was 17 nM; in assay [5], 67 nM. Also, the EC50 in [6] turned out to be 74 nM; in assay [7] it was 42 nM; in assay [8], 244 nM; in assay [18], 68 nM; in [9], 343 nM; in assay [10], 130 nM. The molecule further yielded an EC50 in [11] of 38 nM. Besides, the “TGI [%] [100 − (ΔVT/ΔVC × 100]” value in [12] (series 7, i.v., single 20 mg/kg, total 120 mg/kg, day 15) was 4%; in assay [16] (series 20, i.v., single 20 mg/kg, total 160 mg/kg, day 26, *at least half of animals did not survive) it was 61* %; in assay [23] (series 19, i.v., single 5 mg/kg, total 40 mg/kg, day 39) it was 12%.

On to `O=c1c2ccccc2n2cnc3ccc(NCCCN4CCN(CCCNc5c6ccccc6nc6cccc([N+](=O)[O-])c56)CC4)c1c32` [C-2041, 1-[3-(imidazo[4,5,1-de]-acridin-6-on-5-yl)aminopropyl]-4-[3′-(1′-nitroacridin-1-yl)-aminopropyl]piperazine], for which the EC50 stood at 25 nM in assay [2]; 54 nM in assay [17]; 21 nM in assay [4]; 22 nM in [5]; 24 nM in [7]; 82 nM in [8]. Further, the results for the EC50 in [18], in [9] and in [11] were 32 nM, 69 nM and 39 nM, respectively. Moreover, the “TGI [%] [100 − (ΔVT/ΔVC × 100]” value is listed as 61% in [13] (series 18, i.v., single 2 mg/kg, total 16 mg/kg, day 33); 38* % in [19] (series 28, i.v., single 6 mg/kg, total 12 mg/kg, day 15, *at least half of animals did not survive); 76% in assay [16] (series 17, i.v., single 2 mg/kg, total 16 mg/kg, day 60); 83% in assay [16] (series 27, i.v., single 2 mg/kg, total 16 mg/kg, day 33); 82% in [16] (series 32, i.v., single 1 mg/kg, total 16 mg/kg, day 33); 53% in assay [23] (series 34, i.v., single 4 mg/kg, total 32 mg/kg, day 32). Also, the “TGI [%] [100 − (ΔVT/ΔVC × 100]” value was 81% in assay [21] (series 21, i.v., single 2 mg/kg, total 16 mg/kg, day 44); 48% in [21] (series 33, i.v., single 2 mg/kg, total 16 mg/kg, day 32); 29% in assay [22] (series 23, i.p., single 2 mg/kg, total 16 mg/kg, day 39).

Values taken from patent US10202349B2, “Asymmetric bis-acridines with antitumour activity and their uses” (POLITECHNIKA GDAŃSKA, priority 2015, dated 2019).
